Results published in ChEMBL document CHEMBL4359904, “Structural tuning of acridones for developing anticancer agents targeting dihydrofolate reductase” (Bioorg Med Chem Lett, 2019).
The source made the active and inactive calls. No cut-off for these calls is given here.

What was measured:
C6 [1] = experiment: Antiproliferative activity against rat C6 cells assessed as decrease in cell viability measured after 48 hrs by MTT assay; assay type: functional, cell-based; conditions: for IC50: C6, 48 h
Dihydrofolate reductase = target: T1, Dihydrofolate reductase (Homo sapiens, UniProt P00374); experiment: Inhibition of human dihydrofolate reductase using dihydrofolic acid as substrate preincubated for 1 hr in presence of NADPH followed by substrate addition by enzyme immunoassay
T1 sequence (P00374 whole entry): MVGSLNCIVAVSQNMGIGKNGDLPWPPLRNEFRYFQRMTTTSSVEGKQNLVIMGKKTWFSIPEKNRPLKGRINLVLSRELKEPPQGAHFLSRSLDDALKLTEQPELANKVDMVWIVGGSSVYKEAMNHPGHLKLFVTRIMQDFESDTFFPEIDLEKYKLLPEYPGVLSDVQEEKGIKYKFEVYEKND

C6 [2] = experiment: Induction of morphological changes in rat C6 cells assessed as cellular senescence by measuring cell rounding with distorted morphology after 24 hrs by inverted microscopy analysis; assay type: functional, cell-based
C6 [3] = experiment: Cell cycle arrest in rat C6 cells assessed as cell population at G0/G1 phase measured after 24 hrs by propidium iodide staining based flow cytometry analysis; assay type: functional
C6 [4] = experiment: Cell cycle arrest in rat C6 cells assessed as increase in cell population at sub G0 phase measured after 24 hrs by propidium iodide staining based flow cytometry analysis; assay type: functional
C6 [5] = experiment: Cell cycle arrest in rat C6 cells assessed as decrease in cell population at S phase measured after 24 hrs by propidium iodide staining based flow cytometry analysis; assay type: functional
C6 [6] = experiment: Cell cycle arrest in rat C6 cells assessed as decrease in cell population at G2/M phase measured after 24 hrs by propidium iodide staining based flow cytometry analysis; assay type: functional
UO-31 = experiment: Growth inhibition of human UO31 cells at 10^-5 M incubated for 48 hrs by sulforhodamine B assay relative to control; assay type: functional; conditions: UO-31, 48 h, read-out: GI
MCF7 = experiment: Growth inhibition of human MCF7 cells at 10^-5 M incubated for 48 hrs by sulforhodamine B assay relative to control; assay type: functional; conditions: MCF7, 48 h, read-out: GI
C6 [7] = experiment: Induction of morphological changes in rat C6 cells assessed as increase in total length of processes measured after 24 hrs by inverted microscopy analysis relative to control; assay type: functional

Row | SMILES | inhibition (C6 [1]) | IC50 (C6 [1]) [µM] | IC50 (Dihydrofolate reductase) [µM] | Activity (C6 [2]) | Activity (C6 [3]) | inhibition (C6 [6]) | other results
1 | C[C@H](NC(=O)CNC(=O)c1cccc2c(=O)c3ccccc3[nH]c12)C(=O)O | Dose-dependent effect | 0.25 to 1.5 | 0.67 | Active | inactive | – | –
2 | COc1cccc2c1C(=O)c1c(O)c3c(c(O)c1C2=O)C[C@@](O)(C(=O)CO)C[C@@H]3O[C@H]1C[C@H](N)[C@@H](O)[C@H](C)O1 | – | – | – | – | – | Active | Activity (C6 [4]): Active; inhibition (C6 [5]): Active
3 | CC1=NN(c2cccc(Cl)c2)C(=O)/C1=C\c1cn(CC(O)Cn2c3ccccc3c(=O)c3ccccc32)c2ccccc12 (racemic) | – | – | 1.8 | – | – | – | –
4 | O=C1Nc2ccccc2/C1=C/c1cn(CC(O)Cn2c3ccccc3c(=O)c3ccccc32)c2ccccc12 (racemic) | Dose-dependent effect | 0.25 to 1.5 | 0.1 | Active | inactive | Active | inhibition of growth at 10 µM (UO-31): 70%; inhibition of growth at 10 µM (MCF7): 55%; Activity (C6 [7]): 16 - 18%
5 | CN1C(=O)C(=Cc2cn(CC(O)Cn3c4ccccc4c(=O)c4ccccc43)c3ccccc23)C(=O)N(C)C1=O (racemic) | – | – | 0.21 | – | – | – | –
